Assay [1] has as its system Canis familiaris. Nature of the assay: Collateral index in anesthetized dog at the dose of 0.03 mg/kg, i.v. after 60 minutes of administration. The format is functional, Canis lupus familiaris. The note with it: route intravenous.
Assay [2] relates to Canis familiaris. Nature of the assay: Maximum collateral index in anesthetized dog at the dose of 0.03 mg/kg, i.v. Format: functional, Canis lupus familiaris. The note with it: route intravenous.
Assay [3] is filed under the species Canis familiaris. Briefly: Ratio of the CIAUC value to that of nitroglycerin (NTG ratio). The format is functional, Canis lupus familiaris.
Assay [4] has as its system Canis familiaris. Briefly: Maximum […] was measured in anesthetized dog as percent at the dose of 0.03 mg/kg, i.v. To be noted: route intravenous. Format: functional, Canis lupus familiaris.
The subject of assay [5] is Canis familiaris. Briefly: Maximum […] was measured in anesthetized dog as percent at the dose of 0.01 mg/kg, i.v. To be noted: route intravenous. The format is functional, Canis lupus familiaris.
Assay [6] has as its system Canis familiaris. Nature of the assay: Maximum collateral index in anesthetized dog at the dose of 0.01 mg/kg, i.v. Format: functional, Canis lupus familiaris. The note with it: route intravenous.
Assay [7] has as its system Canis familiaris. Briefly: Collateral index in anesthetized dog at the dose of 0.01 mg/kg, i.v. after 60 minutes of administration. The format is functional, Canis lupus familiaris. The note with it: route intravenous.
Assay [8] can be described thus: Nitroglycerin ratio to that was measured. The format is functional.

`CCCC[C@@H](CO[N+](=O)[O-])NC(=O)[C@@H]1CSC(=O)N1`: the Collateral index with Canis familiaris [1] is listed as 17. Moreover, the Max collateral index in the assay on Canis familiaris [2] was 21. Further, the NG ratio in the assay filed under Canis familiaris [3] stood at 1.6. Moreover, in the assay with Canis familiaris [4], the Max hypotension is listed as -4%.

As to `CC(=O)N[C@@H](CS)C(=O)NCCO[N+](=O)[O-]`, the Max hypotension with Canis familiaris [5] is on record as -52%. In the assay filed under Canis familiaris [3], the NG ratio is given as 1.9. Further, in the assay on Canis familiaris [6], the Max collateral index turned out to be 39. In the assay on Canis familiaris [7], the Collateral index turned out to be 9.

For the compound `O=C1N[C@H](C(=O)NCCCO[N+](=O)[O-])CS1`, the Collateral index in the assay with Canis familiaris [1] is given as 6. In the assay with Canis familiaris [2], this compound yielded a Max collateral index of 4. Further, in the assay listed under Canis familiaris [3], the NG ratio came to 0.1. The Max hypotension in the assay with Canis familiaris [4] stood at 0%.

`C[C@@H](CO[N+](=O)[O-])NC(=O)[C@H]1CSC(=O)N1` had a Collateral index in the assay on Canis familiaris [1] of 3. The Max collateral index in the assay with Canis familiaris [2] stood at 5. The NG ratio in the assay listed under Canis familiaris [3] amounted to 0.3. Besides, the Max hypotension with Canis familiaris [4] is -1%.

For `CC(CNC(=O)[C@@H]1CSC(=O)N1)O[N+](=O)[O-]` (some centres undefined), the Max hypotension in the assay with Canis familiaris [5] turned out to be 0%. Further, the NG ratio in the assay filed under Canis familiaris [3] is recorded as 0. For the same compound, the Max collateral index with Canis familiaris [6] was 0. Further, the Collateral index in the assay on Canis familiaris [7] came out at 0.

For the compound `CC(=O)N[C@@H](CSC(=O)c1ccccc1)C(=O)NCCO[N+](=O)[O-]`, the Max hypotension in the assay on Canis familiaris [5] is listed as -28%. In addition, the NG ratio in the assay listed under Canis familiaris [3] worked out at 2.1. Besides, the Max collateral index with Canis familiaris [6] was found to be 49. The same compound registered a Collateral index in the assay on Canis familiaris [7] of 5.

Turning to `CCC[C@@H](CO[N+](=O)[O-])NC(=O)[C@@H]1CSC(=O)N1`, the Collateral index in the assay on Canis familiaris [1] came out at 17. Besides, the Max collateral index with Canis familiaris [2] is on record as 18. In addition, in the assay filed under Canis familiaris [3], the NG ratio is 1.3. The Max hypotension in the assay with Canis familiaris [4] is listed as -7%.

Turning to `CC(C)C(=O)N[C@@H](CSC(=O)C(C)C)C(=O)NCCO[N+](=O)[O-]`, in the assay on Canis familiaris [5], the Max hypotension is on record as -14%. The NG ratio in the assay filed under Canis familiaris [3] was 1.5. The Max collateral index in the assay on Canis familiaris [6] worked out at 25. Besides, the Collateral index in the assay on Canis familiaris [7] is 9.

On to `O=C1N[C@H](C(=O)NCCCCO[N+](=O)[O-])CS1`, for which the Max hypotension in the assay with Canis familiaris [5] turned out to be 0%. Moreover, in the assay listed under Canis familiaris [3], the NG ratio turned out to be 0. Moreover, in the assay with Canis familiaris [6], the Max collateral index turned out to be 2. For the same compound, the Collateral index with Canis familiaris [7] turned out to be 0.

Consider `O=C1NC(C(=O)NCCO[N+](=O)[O-])C(c2ccco2)S1` (centres undefined), for which the Collateral index with Canis familiaris [1] turned out to be 3. The Max collateral index with Canis familiaris [2] is listed as 6. Also, the NG ratio in the assay filed under Canis familiaris [3] is 0.4. Besides, the Max hypotension in the assay with Canis familiaris [4] is -3%.

In the assay with Canis familiaris [1], `C[C@H](CO[N+](=O)[O-])NC(=O)[C@H]1CSC(=O)N1` registered a Collateral index of 5. Also, in the assay on Canis familiaris [2], the Max collateral index is listed as 6. Besides, the NG ratio in the assay filed under Canis familiaris [3] is on record as 0.4. Besides, the Max hypotension in the assay on Canis familiaris [4] was -3%.

For the compound `O=C1N[C@@H](C(=O)NCCO[N+](=O)[O-])CS1`, in the assay with Canis familiaris [1], the Collateral index came to 11. For the same compound, the Max collateral index with Canis familiaris [2] stood at 14. Also, the NG ratio in the assay listed under Canis familiaris [3] is reported as 0.8. In the assay with Canis familiaris [4], the Max hypotension is -8%.

For `O=C(N[C@@H](CS)C(=O)NCCO[N+](=O)[O-])c1cccnc1`, the Max hypotension in the assay on Canis familiaris [5] is reported as -3%. In addition, in the assay listed under Canis familiaris [3], the NG ratio turned out to be 0. The compound also yielded a Max collateral index with Canis familiaris [6] of 2. Also, in the assay on Canis familiaris [7], the Collateral index was 0.

For `O=C1NC(C(=O)NCCO[N+](=O)[O-])C(c2cccc3ccccc23)S1` (centres undefined), the NG ratio in assay [8] turned out to be 0.5. In the assay with Canis familiaris [5], the Max hypotension is -2%. Moreover, the Max collateral index with Canis familiaris [6] is listed as 9. In addition, the Collateral index in the assay with Canis familiaris [7] is listed as 9.

For the compound `O=C1NC(C(=O)NCCO[N+](=O)[O-])C(c2cccs2)S1` (centres undefined), the Max hypotension in the assay on Canis familiaris [5] was determined as 0%. The NG ratio in the assay listed under Canis familiaris [3] came to 0.5. This compound returned a Max collateral index in the assay with Canis familiaris [6] of 8. The compound also yielded a Collateral index with Canis familiaris [7] of 3.

In the assay on Canis familiaris [1], `O=C1NC(C(=O)NCCO[N+](=O)[O-])C(c2ccccc2)S1` (centres undefined) had a Collateral index of 9. Further, the Max collateral index in the assay with Canis familiaris [2] is recorded as 18. Further, the NG ratio in the assay listed under Canis familiaris [3] is on record as 1. In addition, the Max hypotension in the assay on Canis familiaris [4] is listed as -6%.

With `O=C1N[C@H](C(=O)NCCO[N+](=O)[O-])CS1`, in the assay with Canis familiaris [5], the Max hypotension was -8%. Besides, the NG ratio in the assay listed under Canis familiaris [3] was 1.9. Moreover, the Max collateral index in the assay on Canis familiaris [6] is listed as 23. In the assay with Canis familiaris [7], this compound registered a Collateral index of 16.

For the compound `CC(=O)N[C@@H](CSC(=O)OC(C)(C)C)C(=O)NCCO[N+](=O)[O-]`, the Max hypotension with Canis familiaris [5] is given as -8%. For the same compound, in the assay listed under Canis familiaris [3], the NG ratio stood at 0.8. The compound further showed a Max collateral index in the assay on Canis familiaris [6] of 21. Also, the Collateral index in the assay with Canis familiaris [7] came out at 11.

`O=[N+]([O-])OCC(CO[N+](=O)[O-])O[N+](=O)[O-]` [NITROGLYCERIN]: the Collateral index in the assay on Canis familiaris [1] worked out at 4. This compound gave a Max collateral index in the assay on Canis familiaris [2] of 33. Moreover, in the assay listed under Canis familiaris [3], the NG ratio came out at 1. In addition, the Max hypotension in the assay with Canis familiaris [4] is -55%.

With `CC(=O)N[C@@H](CSC(=O)c1cccnc1)C(=O)NCCO[N+](=O)[O-]`, the Max hypotension with Canis familiaris [5] is -24%. Moreover, the NG ratio in the assay listed under Canis familiaris [3] is recorded as 1.1. Also, in the assay with Canis familiaris [6], the Max collateral index is 20. Further, in the assay with Canis familiaris [7], the Collateral index turned out to be 9.

As to `O=C1NC(C(=O)NCCO[N+](=O)[O-])C(c2cccnc2)S1` (centres undefined), in assay [8], the NG ratio stood at 0.1. Further, the Max hypotension in the assay with Canis familiaris [5] was -4%. Moreover, the Max collateral index with Canis familiaris [6] was determined as 2. In the assay with Canis familiaris [7], this compound yielded a Collateral index of 0.

In turn, `C[C@@H](CO[N+](=O)[O-])NC(=O)[C@@H]1CSC(=O)N1` registered a Collateral index with Canis familiaris [1] of 15. In the assay with Canis familiaris [2], this compound came in with a Max collateral index of 16. Besides, the NG ratio in the assay filed under Canis familiaris [3] was found to be 1.1. In addition, the Max hypotension with Canis familiaris [4] is -5%.

Turning to `C[C@H](CO[N+](=O)[O-])NC(=O)[C@@H]1CSC(=O)N1`, the Collateral index in the assay on Canis familiaris [1] is on record as 12. For the same compound, the Max collateral index in the assay on Canis familiaris [2] is recorded as 12. The NG ratio in the assay listed under Canis familiaris [3] was 0.9. Moreover, the Max hypotension with Canis familiaris [4] was -4%.

For the compound `CC(=O)N[C@@H](CSC(C)=O)C(=O)NCCO[N+](=O)[O-]`, in the assay with Canis familiaris [5], the Max hypotension is -44%. Also, the NG ratio in the assay listed under Canis familiaris [3] was found to be 2. In the assay on Canis familiaris [6], the Max collateral index is 52. The same compound yielded a Collateral index with Canis familiaris [7] of 6.

Consider `O=C1NC(C(=O)NCCO[N+](=O)[O-])C(Cc2ccccc2)S1` (centres undefined), for which the Max hypotension with Canis familiaris [5] is -3%. In addition, the NG ratio in the assay listed under Canis familiaris [3] was 1. In the assay with Canis familiaris [6], the Max collateral index is recorded as 12. For the same compound, the Collateral index in the assay on Canis familiaris [7] stood at 7.

As to `CC(=O)N[C@@H](CSC(=O)OCC(C)C)C(=O)NCCO[N+](=O)[O-]`, in the assay with Canis familiaris [5], the Max hypotension is on record as -12%. In addition, the NG ratio in the assay filed under Canis familiaris [3] turned out to be 1.3. In the assay with Canis familiaris [6], this compound yielded a Max collateral index of 25. This compound also showed a Collateral index in the assay with Canis familiaris [7] of 6.

Take `CC[C@@H](CO[N+](=O)[O-])NC(=O)[C@@H]1CSC(=O)N1`: the Collateral index in the assay on Canis familiaris [1] amounted to 7. The same compound gave a Max collateral index in the assay on Canis familiaris [2] of 7. Further, the NG ratio in the assay listed under Canis familiaris [3] amounted to 0.5. The Max hypotension in the assay on Canis familiaris [4] is on record as -1%.

Regarding `CCOC(=O)SC[C@H](NC(C)=O)C(=O)NCCO[N+](=O)[O-]`, in the assay on Canis familiaris [5], the Max hypotension is listed as -18%. Also, in the assay listed under Canis familiaris [3], the NG ratio turned out to be 2.4. In the assay on Canis familiaris [6], this compound showed a Max collateral index of 39. Also, the Collateral index in the assay on Canis familiaris [7] amounted to 16.

The compound `CC1(C)SC(=O)N[C@@H]1C(=O)NCCO[N+](=O)[O-]` registered a Collateral index with Canis familiaris [1] of 8. The Max collateral index in the assay with Canis familiaris [2] came out at 9. For the same compound, the NG ratio in the assay filed under Canis familiaris [3] came out at 0.6. For the same compound, in the assay with Canis familiaris [4], the Max hypotension is -2%.

For the compound `C[C@@H]1SC(=O)N[C@@H]1C(=O)NCCO[N+](=O)[O-]`, the Max hypotension in the assay with Canis familiaris [5] is reported as -2%. In addition, in the assay listed under Canis familiaris [3], the NG ratio stood at 0.5. The same compound had a Max collateral index in the assay with Canis familiaris [6] of 9. In the assay on Canis familiaris [7], this compound came in with a Collateral index of 4.

For `CC(=O)N[C@@H](CSC(=O)C(C)(C)C)C(=O)NCCO[N+](=O)[O-]`, the Max hypotension in the assay with Canis familiaris [5] is -23%. Moreover, in the assay filed under Canis familiaris [3], the NG ratio is 2.5. The Max collateral index with Canis familiaris [6] was 45. This compound returned a Collateral index with Canis familiaris [7] of 8.

The values above are taken from ChEMBL document CHEMBL1136426, “Synthesis and collateral dilator activity of nitroxyalkylamides having direct or latent sulfhydryl moieties” (2003).
